Results published in PubChem BioAssay (NCI).
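Following 48 hours of exposure in 96-well plates, responses at five concentrations were used to interpolate endpoints linearly. GI50 = concentration required for 50% inhibition of growth. Definition used: TGI = concentration required for complete inhibition of growth.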

Legend:
Experiment in all cases: NCI anticancer screen, dose series, 48 h
NCI/ADR-RES ovarian = test system: NCI/ADR-RES ovarian
T-47D breast = test system: T-47D breast
LOX IMVI melanoma = test system: LOX IMVI melanoma
TK-10 renal = test system: TK-10 renal
786-0 renal = test system: 786-0 renal
CCRF-CEM leukemia = test system: CCRF-CEM leukemia
UACC-62 melanoma = test system: UACC-62 melanoma
U251 CNS = test system: U251 CNS
PC-3 prostate = test system: PC-3 prostate
UO-31 renal = test system: UO-31 renal
NCI-H522 lung = test system: NCI-H522 lung
DU-145 prostate = test system: DU-145 prostate
MOLT-4 leukemia = test system: MOLT-4 leukemia
SW-620 colon = test system: SW-620 colon
MCF7 breast = test system: MCF7 breast
SF-539 CNS = test system: SF-539 CNS
KM12 colon = test system: KM12 colon
ACHN renal = test system: ACHN renal
MDA-MB-435 = test system: MDA-MB-435
HOP-62 NSCLC = test system: HOP-62 NSCLC
NCI-H460 lung = test system: NCI-H460 lung
HCT-15 colon = test system: HCT-15 colon
NCI-H226 lung = test system: NCI-H226 lung
SF-268 CNS = test system: SF-268 CNS
OVCAR-4 ovarian = test system: OVCAR-4 ovarian
NCI-H23 lung = test system: NCI-H23 lung
SR leukemia = test system: SR leukemia
RXF 393 renal = test system: RXF 393 renal
CAKI-1 renal = test system: CAKI-1 renal
SK-MEL-2 melanoma = test system: SK-MEL-2 melanoma
M14 melanoma = test system: M14 melanoma
SK-MEL-5 melanoma = test system: SK-MEL-5 melanoma
A498 renal = test system: A498 renal
MALME-3M melanoma = test system: MALME-3M melanoma
SNB-75 CNS = test system: SNB-75 CNS
OVCAR-5 ovarian = test system: OVCAR-5 ovarian
K-562 leukemia = test system: K-562 leukemia
SN12C renal = test system: SN12C renal
HCC-2998 colon = test system: HCC-2998 colon
MDA-MB-231 breast = test system: MDA-MB-231 breast
OVCAR-3 ovarian = test system: OVCAR-3 ovarian
HOP-92 NSCLC = test system: HOP-92 NSCLC
IGROV1 ovarian = test system: IGROV1 ovarian
HT29 colon = test system: HT29 colon
SK-OV-3 ovarian = test system: SK-OV-3 ovarian
A549 NSCLC = test system: A549 NSCLC
SNB-19 CNS = test system: SNB-19 CNS
HL-60(TB) leukemia = test system: HL-60(TB) leukemia
OVCAR-8 ovarian = test system: OVCAR-8 ovarian
BT-549 breast = test system: BT-549 breast
HS 578T breast = test system: HS 578T breast
COLO 205 colon = test system: COLO 205 colon
UACC-257 melanoma = test system: UACC-257 melanoma
HCT-116 colon = test system: HCT-116 colon
SK-MEL-28 melanoma = test system: SK-MEL-28 melanoma
RPMI-8226 leukemia = test system: RPMI-8226 leukemia
SF-295 CNS = test system: SF-295 CNS

Cn1ncnc1C1c2n[nH]c(=O)c3cc(F)cc(c23)NC1c1ccc(F)cc1 (stereo not drawn)
GI50 (NCI/ADR-RES ovarian): > 100 µM
TGI (NCI/ADR-RES ovarian): > 100 µM
GI50 (T-47D breast): > 100 µM
TGI (T-47D breast): > 100 µM
GI50 (LOX IMVI melanoma): 6.63 µM
TGI (LOX IMVI melanoma): > 100 µM
GI50 (TK-10 renal): > 34.2 µM
TGI (TK-10 renal): > 100 µM
GI50 (786-0 renal): > 100 µM
TGI (786-0 renal): > 100 µM
GI50 (CCRF-CEM leukemia): 3.13 µM
TGI (CCRF-CEM leukemia): > 100 µM
GI50 (UACC-62 melanoma): > 100 µM
TGI (UACC-62 melanoma): > 100 µM
GI50 (U251 CNS): 2.18 µM
TGI (U251 CNS): > 100 µM
GI50 (PC-3 prostate): > 100 µM
TGI (PC-3 prostate): > 100 µM
GI50 (UO-31 renal): 11.9 µM
TGI (UO-31 renal): > 100 µM
GI50 (NCI-H522 lung): > 100 µM
TGI (NCI-H522 lung): > 100 µM
GI50 (DU-145 prostate): 4.14 µM
TGI (DU-145 prostate): > 100 µM
GI50 (MOLT-4 leukemia): 3.25 µM
TGI (MOLT-4 leukemia): > 100 µM
GI50 (SW-620 colon): > 41 µM
TGI (SW-620 colon): > 100 µM
GI50 (MCF7 breast): 1.57 µM
TGI (MCF7 breast): > 100 µM
GI50 (SF-539 CNS): 5.39 µM
TGI (SF-539 CNS): > 100 µM
GI50 (KM12 colon): > 100 µM
TGI (KM12 colon): > 100 µM
GI50 (ACHN renal): 29.4 µM
TGI (ACHN renal): > 100 µM
GI50 (MDA-MB-435): > 100 µM
TGI (MDA-MB-435): > 100 µM
GI50 (HOP-62 NSCLC): 7.79 µM
TGI (HOP-62 NSCLC): > 100 µM
GI50 (NCI-H460 lung): 0.193 µM
TGI (NCI-H460 lung): > 100 µM
GI50 (HCT-15 colon): > 100 µM
TGI (HCT-15 colon): > 100 µM
GI50 (NCI-H226 lung): > 100 µM
TGI (NCI-H226 lung): > 100 µM
GI50 (SF-268 CNS): 3.3 µM
TGI (SF-268 CNS): > 100 µM
GI50 (OVCAR-4 ovarian): 12.7 µM
TGI (OVCAR-4 ovarian): > 100 µM
TGI (NCI-H23 lung): > 100 µM
GI50 (SR leukemia): < 0.0265 µM
TGI (SR leukemia): > 62.5 µM
GI50 (RXF 393 renal): 22.2 µM
TGI (RXF 393 renal): > 100 µM
GI50 (CAKI-1 renal): 9.37 µM
TGI (CAKI-1 renal): > 100 µM
GI50 (SK-MEL-2 melanoma): > 100 µM
TGI (SK-MEL-2 melanoma): > 100 µM
GI50 (M14 melanoma): 3.52 µM
TGI (M14 melanoma): > 100 µM
GI50 (SK-MEL-5 melanoma): > 100 µM
TGI (SK-MEL-5 melanoma): > 100 µM
GI50 (A498 renal): 5 µM
TGI (A498 renal): > 94.3 µM
GI50 (MALME-3M melanoma): > 100 µM
TGI (MALME-3M melanoma): > 100 µM
GI50 (SNB-75 CNS): 9.8 µM
TGI (SNB-75 CNS): > 100 µM
GI50 (OVCAR-5 ovarian): > 100 µM
TGI (OVCAR-5 ovarian): > 100 µM
GI50 (K-562 leukemia): > 100 µM
TGI (K-562 leukemia): > 100 µM
GI50 (SN12C renal): 4.43 µM
TGI (SN12C renal): > 100 µM
GI50 (HCC-2998 colon): > 100 µM
TGI (HCC-2998 colon): > 100 µM
GI50 (MDA-MB-231 breast): > 100 µM
TGI (MDA-MB-231 breast): > 100 µM
GI50 (OVCAR-3 ovarian): > 100 µM
TGI (OVCAR-3 ovarian): > 100 µM
GI50 (HOP-92 NSCLC): 39.9 µM
TGI (HOP-92 NSCLC): > 100 µM
GI50 (IGROV1 ovarian): > 100 µM
TGI (IGROV1 ovarian): > 100 µM
GI50 (HT29 colon): > 100 µM
TGI (HT29 colon): > 100 µM
GI50 (SK-OV-3 ovarian): > 42.7 µM
TGI (SK-OV-3 ovarian): > 100 µM
GI50 (A549 NSCLC): 7.9 µM
TGI (A549 NSCLC): > 100 µM
GI50 (SNB-19 CNS): 11.2 µM
TGI (SNB-19 CNS): > 100 µM
GI50 (HL-60(TB) leukemia): 4.86 µM
TGI (HL-60(TB) leukemia): > 100 µM
GI50 (OVCAR-8 ovarian): > 100 µM
TGI (OVCAR-8 ovarian): > 100 µM
GI50 (BT-549 breast): > 69.9 µM
TGI (BT-549 breast): > 100 µM
GI50 (HS 578T breast): > 100 µM
TGI (HS 578T breast): > 100 µM
GI50 (COLO 205 colon): > 100 µM
TGI (COLO 205 colon): > 100 µM
GI50 (UACC-257 melanoma): > 100 µM
TGI (UACC-257 melanoma): > 100 µM
GI50 (HCT-116 colon): 25.8 µM
TGI (HCT-116 colon): > 100 µM
GI50 (SK-MEL-28 melanoma): > 100 µM
TGI (SK-MEL-28 melanoma): > 100 µM
GI50 (RPMI-8226 leukemia): > 100 µM
TGI (RPMI-8226 leukemia): > 100 µM
GI50 (SF-295 CNS): 1.01 µM
TGI (SF-295 CNS): > 100 µM
